Experimental data as given in PMC11765156 (International Journal of Molecular Sciences, 2025).
Values after ≈ are worked out from the molar mass of the structure shown.

Columns and labels:
[1] = Anti-settlement assay with barnacle cyprid larvae (settlement inhibition and mortality, 48 h); type: in vivo, Balanus amphitrite; conditions: in vivo, other: larvae immersed in seawater containing the compound; Balanus amphitrite cyprid larvae, 48 h incubation; read-out: LC50 (larval mortality)
Method: (§1) Compounds dissolved in DMSO were sequentially administered to the wells, starting with a concentration of 25 µg/mL and proceeding with serial half-logarithmic dilutions. The volume of the compound in each well was maintained at […], with seawater as the blank control, DMSO as the negative control, and SeaNine 211 serving as the positive control. Utilizing a stereo microscope, a 1 mL micropipette was employed to introduce 995 μL of seawater and between 21 and 25 cyprid larvae into each well of a 24-well plate. Subsequently, the plates were incubated in a darkened, temperature-controlled environment for 48 h. […] This observation facilitated the calculation of mortality and settlement rates of the barnacle cyprids, crucial for assessing the antifouling properties of the compounds. The determination of EC50 values for the inhibition of barnacle larval attachment and LC50 values for larval mortality offered an evaluation of the compounds’ efficacy in deterring barnacle larval adherence and their associated toxicity.

Balanus amphitrite = assay: as above; type: in vivo; conditions: for EC50: Amphibalanus amphitrite, read-out: EC50 (inhibition of barnacle larval settlement); for LC50/EC50: Balanus amphitrite, ratio >15 indicating low toxicity
Method: as §1

[2] = system: Balanus amphitrite cyprid larvae; assay: Rescue (resuscitation) assay of Balanus amphitrite cyprid larvae; type: in vivo; conditions: 1 μg/mL for 24 h, rinsed, settlement observed after 48 h
[3] = Zebrafish embryo toxicity assay; type: in vivo; conditions: in vivo, other: embryos immersed in compound solution in wells, 48 h exposure, read-out: LC50 at 48 h post-fertilization
Method: (§2) The zebrafish embryo toxicity assay was conducted according to the method described by Huang et al., with slight modifications. Test compounds were dissolved in 0.5% DMSO to prepare a concentration series (0.1, 1, 5, 25, 50 μg/mL), which was then dispensed into 24-well plates. Fifteen cleavage-stage embryos were added to each well. The plates were incubated at 28 °C, and embryonic development was evaluated under a stereomicroscope after 48 h of exposure.

zebrafish embryos = assay: Zebrafish embryo toxicity assay; type: in vivo; conditions: for phenotype of zebrafish embryos versus control: 48 h
Method: as §2

[4] = Balanus amphitrite cyprid larvae, 48 h incubation

Row | Compound | LC50 at 48 h [1] [µg/mL] | EC50 (Balanus amphitrite; [4]) [µg/mL] | LC50/EC50 (Balanus amphitrite) | also measured
1 | COC(=O)C12OCC34C(CC5C(C)=C(O)C(=O)CC5(C)C3C(O)C1O)OC(=O)C(OC(=O)CCCCBr)C24 (stereo not shown) [Compound 1, 15-O-(5′-Bromovaleryl)-Bruceolide] | 0.842 ± 0.112 (≈ 1.4 µM) | 0.523 ± 0.123 (≈ 0.87 µM) |  | 
2 | COC(=O)C12OCC34C(CC5C(C)=C(O)C(=O)CC5(C)C3C(O)C1O)OC(=O)C(OC(=O)CCCCCl)C24 (stereo not shown) [Compound 2, 15-O-(5′-Chlorovaleryl)-Bruceolide] | 1.12 ± 0.144 (≈ 2.02 µM) | 0.417 ± 0.185 (≈ 0.748 µM) | 2.6978 | 
3 | COC(=O)C12OCC34C(CC5C(C)=C(O)C(=O)CC5(C)C3C(O)C1O)OC(=O)C(OC(=O)CCCCl)C24 (stereo not shown) [Compound 3, 15-O-(4′-Chlorobutanoyl)-Bruceolide] | 6.24 ± 2.62 (≈ 11.5 µM) | 0.147 ± 0.0332 (≈ 0.272 µM) | 42.2922 | recovery rate [2]: high recovery rates; resuscitation rate [2]: 71.11%; LC50 at 48 h [3]: 15.8 µg/mL (≈ 29 µM); phenotype of zebrafish embryos versus control (zebrafish embryos): no significant phenotypic differences
4 | COC(=O)C12OCC34C(CC5C(C)=C(O)C(=O)CC5(C)C3C(O)C1O)OC(=O)C(OC(=O)c1ccc(Cl)cc1)C24 (stereo not shown) [Compound 4] | 0.741 ± 0.082 (≈ 1.28 µM) | 0.353 ± 0.101 (≈ 0.611 µM) | 2.1018 | 
5 | COC(=O)C12OCC34C(CC5C(C)=C(O)C(=O)CC5(C)C3C(O)C1O)OC(=O)C(OC(=O)c1ccc(Cl)s1)C24 (stereo not shown) [Compound 5] | 6.14 ± 0.173 (≈ 10.5 µM) | 2.02 ± 0.237 (≈ 3.47 µM) | 3.0330 | 
6 | COC(=O)C12OCC34C(CC5C(C)=C(O)C(=O)CC5(C)C3C(O)C1O)OC(=O)C(OC(=O)c1ccc(Cl)nc1)C24 (stereo not shown) [Compound 6] | 5.77 ± 2.54 (≈ 9.98 µM) | 0.34 ± 0.104 (≈ 0.589 µM) | 16.9633 | recovery rate [2]: high recovery rates; LC50 at 48 h [3]: 8.18 µg/mL (≈ 14.2 µM); phenotype of zebrafish embryos versus control (zebrafish embryos): no significant phenotypic differences
7 | COC(=O)C12OCC34C(CC5C(C)=C(O)C(=O)CC5(C)C3C(O)C1O)OC(=O)C(OC(=O)Cc1cccc(F)c1)C24 (stereo not shown) [Compound 8, 15-O-(5′-Fluorophenylacetyl)-Bruceolide] | 5.91 ± 1.03 (≈ 10.3 µM) | 1.12 ± 0.103 (≈ 1.95 µM) | 5.2723 | 
8 | COC(=O)C12OCC34C(CC5C(C)=C(O)C(=O)CC5(C)C3C(O)C1O)OC(=O)C(OC(=O)CCC#N)C24 (stereo not shown) [Compound 12, 15-O-(3′-Cyanopropanoyl)-Bruceolide] | 2.8 ± 0.122 (≈ 5.39 µM) | 1.39 ± 0.135 (≈ 2.67 µM) | 2.0219 | 
9 | COC(=O)C12OCC34C(CC5C(C)=C(O)C(=O)CC5(C)C3C(O)C1O)OC(=O)C(OC(=O)Cc1cccc(C#N)c1)C24 (stereo not shown) [Compound 13, 15-O-(5′-Cyano-Phenyl-3′-Acetyl)-Bruceolide] | 6.61 ± 0.112 (≈ 11.4 µM) | 1.84 ± 0.179 (≈ 3.17 µM) | 3.5854 | 
10 | COC(=O)C12OCC34C(CC5C(C)=C(O)C(=O)CC5(C)C3C(O)C1O)OC(=O)C(OC(=O)c1ccc(C(C)=O)s1)C24 (stereo not shown) [Compound 14, 15-O-(3′-Acetyl-Thiophen-6′-Carbonyl)-Bruceolide] | 7.92 ± 0.243 (≈ 13.4 µM) | 2.15 ± 0.727 (≈ 3.63 µM) | 3.6926 | 
11 | CCCCCCCCn1sc(Cl)c(Cl)c1=O [SeaNine 211, reference compound] |  |  |  | EC50 (inhibition of barnacle larval settlement) (Balanus amphitrite; [4]): 1.9363 ± 0.4128 µg/mL; LC50 (larval mortality) (Balanus amphitrite; [4]): 33.9306 ± 2.0625 µg/mL (≈ 120 µM); LC50 at 48 h post-fertilization (zebrafish embryos; 48 h exposure): 7.2236 µg/mL (≈ 25.6 µM)
12 | brusatol [B1, reference compound] |  |  |  | EC50 (inhibition of barnacle larval settlement) (Balanus amphitrite; [4]): 2.7826 ± 0.6874 µg/mL
